Test results reported in US12421206B2, “Aryl-n-aryl derivatives for treating a RNA virus infection” (ABIVAX, priority 2018, dated 2025).

How the values were obtained:
RSV A2 = assay: RSV inhibition (cytopathic effect inhibition) using Viral ToxGlo assay in HEp-2 cells; format: cell-based; settings: human respiratory syncytial virus, RSV A2, MOI 0.5, HEp-2 cells, 72 h p.i.
Procedure: Protocol for Screening Antiviral Compounds for RSV Inhibition and Cytotoxicity Using Viral ToxGlo Assay
HEp-2 cells were maintained in Eagle's minimum essential medium (EMEM) with Earle's BSS adjusted to contain 2 mM L-glutamine, 10% fetal bovine serum, 100 U/ml penicillin and 100 μg/ml streptomycin. For the purposes of the screening assay they were grown to 90% confluency, trypsinized and recovered. The trypsin was neutralised with cell culture media and cells were centrifuged at 150×g for 5 minutes before discarding the supernatant and resuspending cell pellet in assay media (EMEM with Earle's BSS adjusted to contain 2 mM L-glutamine, 2% fetal bovine serum and 100 U/ml penicillin and 100 μg/ml streptomycin). The cells were seeded into white clear-bottomed cell culture plates at a density of 1.5×10^4 cells/well in 50 μl and 4×10^3 cells/well in 25 μl for 96 well plates and 384 well plates respectively. For the media/background control column assay media only was added. Cell plates were placed in a humid chamber and incubated overnight at 37° C./5% CO2. After overnight incubation cells were checked for confluency and healthy appearance.
Test articles were made up at 10× test concentration in a maximum DMSO concentration of 10% (final assay concentration maximal 1% DMSO) and added to the cell plates in volumes of 10 μl for 96 well plates and 5 μl for 384 well plates. For cell control and virus control wells the test article solvent only was added. Virus or assay media for cytotoxicity test wells and media/cell control wells was added immediately after test articles at an MOI of 0.5, 40 or 20 μl for 96 and 384 well plates respectively. Virus suspension was prepared by thawing RSV A2 frozen stocks and diluting to the required concentration of plaque forming units in assay media on ice.
(§1) Cell plates were further incubated inside a humid chamber for 72 h p.i at 37° C./5% CO2. After the incubation period cells were observed under the microscope to check for characteristic cytopathic effect in virus control wells and healthy cells in the cell control wells. After plates were adjusted to room temperature 20/40 μl Viral ToxGlo (Promega) was added to each well of the 384/96 well cell plates. Plates were incubated at room temperature, protected from light on a plate rocker for 20 minutes before measuring the luminescence on a spectrophotometer (Biotek Synergy HTX).
RSV inhibition was calculated as percentage of cytopathic effect inhibition relative to the virus control and cytotoxicity as percentage of cell survival relative to cell control wells. This allowed EC50 values to be calculated for each test article where a virus inhibition or cytotoxic dose response was identified.

DENV-2 strain 16681 = assay: DENV-2 inhibition (cytopathic effect inhibition) using Viral ToxGlo assay in A549 cells; format: cell-based, Dengue 2 virus; settings: Dengue virus, DENV2, 120 h, compounds at 10 μM, MOI 0.5, 5 days p.i., read-out: % DENV-2 Inhibition Mean (n = 3)
Procedure: Protocol for Screening Antiviral Compounds for DENV-2 Inhibition and Cytotoxicity Using Viral ToxGlo Assay
A549 cells were maintained in Dulbecco's Modified Eagle Medium (DMEM) supplemented with 10% fetal bovine serum, 100 U/ml penicillin and 100 μg/ml streptomycin. For the purposes of the screening assay they were grown to 90% confluency, trypsinized and recovered. The trypsin was neutralised with cell culture media and cells were centrifuged at 150×g for 5 minutes before discarding the supernatant and resuspending cell pellet in assay media (DMEM supplemented with 2% fetal bovine serum and 100 U/ml penicillin and 100 μg/ml streptomycin). The cells were seeded into 96-well white clear-bottomed cell culture plates at a density of 1.0×10^4 cells/well in 50 μl. For the media/background control column assay media only was added. Cell plates were placed in a humid chamber and incubated overnight at 37° C./5% CO2. After overnight incubation cells were checked for confluency and healthy appearance.
Test compounds were prepared at a final concentration of 10 μM in a maximum DMSO concentration of 1% (final assay concentration maximal 0.1% DMSO) and added to the cell plates in volumes of 10 μl. For cell control and virus control wells the test article solvent only was added. As a positive inhibition control, 7-Deaza-2′-C-methyladenosine was added at 100 μM in 3 wells. Virus (DENV-2 strain 16681) or assay media for cytotoxicity test wells and media/cell control wells was added immediately after test articles at an MOI of 0.5, 40 for 96 well plates respectively. Virus suspension was prepared by thawing DENV-2 frozen stocks and diluting to the required concentration of plaque forming units in assay media.
as §1, with “5 days” for “72 h”, “20” for “20/40”, “96-well” for “384/96 well”, “temperature” for “temperature, protected from light on a plate rocker”, “5” for “20”, “(Envision, PerkinElmer).” for “(Biotek Synergy HTX).”
DENV-2 inhibition was calculated as percentage of cytopathic effect inhibition relative to the virus control and cytotoxicity as percentage of cell survival relative to cell control wells.

SMILES	EC50 (RSV A2) [nM]	inhibition at 10 µM (DENV-2 strain 16681) [%]
CC(C)CCNC(=O)c1cccc(Nc2ccc(OCc3ccccn3)cc2C2CC2)c1 [Compound 61, 3-((2-cyclopropyl-4-(pyridin-2-ylmethoxy)phenyl)amino)-N-isopentylbenzamide]	54	55
O=C(NCC1CCCC1)c1cccc(Nc2ccc(OCc3ccccn3)cc2)c1 [Compound 62, N-(cyclopentylmethyl)-3-((4-(pyridin-2-ylmethoxy)phenyl)amino)benzamide]		55
O=C(NCCC(F)(F)F)c1cccc(Nc2ccc(OCc3ccccn3)cc2)c1 [Compound 65, 3-((4-(pyridin-2-ylmethoxy)phenyl)amino)-N-(3,3,3-trifluoropropyl)benzamide]		77
O=C(NCCC1CCCC1)c1cccc(Nc2ccc(OCc3ccccc3)cc2C2CC2)c1 [Compound 82, N-(2-(cyclopentyl)ethyl)-3-((2-cyclopropyl-4-(phenylmethoxy)phenyl)amino)benzamide]	4	64
O=C(CCC1CCCCC1)Nc1cccc(Nc2ccc(OCc3ccccc3)cc2C(F)(F)F)c1 [Compound 98, N-(3-{[4-(benzyloxy)-2-(trifluoromethyl)phenyl]amino}phenyl)-3-cyclohexylpropanamide]	12	60
CC(C)c1cc(OCc2ccccc2)ccc1Nc1cccc(OCCCC2CCCCC2)c1 [Compound 119, 4-(benzyloxy)-N-[3-(3-cyclohexylpropoxy)phenyl]-2-(propan-2-yl)aniline]	107	104
Cc1cc(OCc2ccc(F)cc2)ccc1Nc1ccc(F)c(NC(=O)CCC2CCCCC2)c1 [Compound 121, 3-cyclohexyl-N-[2-fluoro-5-({4-[(4-fluorophenyl)methoxy]-2-methylphenyl}amino)phenyl]propanamide]	116	59
Cc1cc(OCc2ccccc2)ccc1Nc1cccc(NC(=O)CCC2CCCCC2)c1 [Compound 132, N-(3-{[4-(benzyloxy)-2-methylphenyl]amino}phenyl)-3-cyclohexylpropanamide]	228	71
Cc1cc(OCc2ccc(F)cc2)ccc1Nc1cccc(NC(=O)CCC2CCCCC2)c1 [Compound 140, 3-cyclohexyl-N-[3-({4-[(4-fluorophenyl)methoxy]-2-methylphenyl}amino)phenyl]propanamide]	349	74
c1ccc(COc2ccc(Nc3cccc(SCCCC4CCCCC4)c3)c(C3CC3)c2)cc1 [Compound 149, 4-(benzyloxy)-N-{3-[(3-cyclohexylpropyl)sulfanyl]phenyl}-2-cyclopropylaniline]	555	
O=C(CCC1CCCCC1)Nc1cccc(Nc2ccc(OCc3ccccc3)cc2F)c1 [Compound 150, N-(3-{[4-(benzyloxy)-2-fluorophenyl]amino}phenyl)-3-cyclohexylpropanamide]	597	78
c1ccc(COc2ccc(Nc3cccc(OC4COC4)c3)c(C3CC3)c2)nc1 [Compound 151, 2-cyclopropyl-N-[3-(oxetan-3-yloxy)phenyl]-4-[(pyridin-2-yl)methoxy]aniline]	671	63
Cc1cc(OCc2ncccn2)ccc1Nc1cccc(OCCCC2CCCCC2)c1 [Compound 152, N-[3-(3-cyclohexylpropoxy)phenyl]-2-methyl-4-[(pyrimidin-2-yl)methoxy]aniline]	802	
Cc1cc(OCc2ccc(OC(F)(F)F)cc2)ccc1Nc1cccc(NC(=O)CCC2CCCCC2)c1 [Compound 153, 3-cyclohexyl-N-{3-[(2-methyl-4-{[4-(trifluoromethoxy)phenyl]methoxy}phenyl)amino]phenyl}propanamide]	809	
c1ccc(COc2ccc(Nc3ccccc3OCCCC3CCCCC3)c(C3CC3)c2)cc1 [Compound 154, 4-(benzyloxy)-N-[2-(3-cyclohexylpropoxy)phenyl]-2-cyclopropylaniline]	810	
OCC(O)(CCC1CCCCC1)c1cccc(Nc2ccc(OCc3ccccc3)cc2C2CC2)c1 (centres unmarked) [Compound 155, 2-(3-{[4-(benzyloxy)-2-cyclopropylphenyl]amino}phenyl)-4-cyclohexylbutane-1,2-diol]	1030	
CN(c1cccc(OCCCC2CCCCC2)c1)c1ccc(OCc2ccccn2)cc1C1CC1 [Compound 156, N-[3-(3-cyclohexylpropoxy)phenyl]-2-cyclopropyl-N-methyl-4-[(pyridin-2-yl)methoxy]aniline]	1060	82
c1ccc(COc2ccc(Nc3cccc(OCCCC4CCCCC4)c3)c(C3CCOCC3)c2)cc1 [Compound 164, 4-(benzyloxy)-N-[3-(3-cyclohexylpropoxy)phenyl]-2-(oxan-4-yl)aniline]	1320	
C1=C(c2cc(OCc3ccccc3)ccc2Nc2cccc(OCCCC3CCCCC3)c2)CCOC1 [Compound 165, 4-(benzyloxy)-N-[3-(3-cyclohexylpropoxy)phenyl]-2-(3,6-dihydro-2H-pyran-4-yl)aniline]	2360	
c1ccc(COc2ccc(Nc3cncc(OCCCC4CCCCC4)c3)c(C3CC3)c2)nc1 [Compound 166, 5-(3-cyclohexylpropoxy)-N-{2-cyclopropyl-4-[(pyridin-2-yl)methoxy]phenyl}pyridin-3-amine]	2490	
O=C(CCC1CCCCC1)Nc1cccc(Nc2ccc(OCc3ccc(C(F)(F)F)cc3)cc2C2CC2)c1 [Compound 169, 3-cyclohexyl-N-{3-[(2-cyclopropyl-4-{[4-(trifluoromethyl)phenyl]methoxy}phenyl)amino]phenyl}propanamide]		59
Cc1cc(OCc2ccccc2)ccc1Nc1cccc(OCC2CCCC2)c1 [Compound 175, 4-(benzyloxy)-N-[3-(cyclopentylmethoxy)phenyl]-2-methylaniline]		60
Cc1cc(OCc2cncnc2)ccc1Nc1cccc(OCCCC2CCCCC2)c1 [Compound 176, N-[3-(3-cyclohexylpropoxy)phenyl]-2-methyl-4-[(pyrimidin-5-yl)methoxy]aniline]		85
c1ccc(COc2ccc(Nc3cccc(-c4cnco4)c3)c(C3CC3)c2)nc1 [Compound 179, 2-cyclopropyl-N-[3-(1,3-oxazol-5-yl)phenyl]-4-[(pyridin-2-yl)methoxy]aniline]	721	
Cc1cc(OCc2ccccc2)ccc1Nc1cccc(OCC(=O)O)c1 [Compound 192, 2-(3-{[4-(benzyloxy)-2-methylphenyl]amino}phenoxy)acetic acid]		66
